Results from the supplement of paper PMC10883282.
± gives the standard deviation of the averaged measurements.

System: SK-ES-1
Assay: relative viability vs DMSO control (72 h) (fraction); higher = more viable cells
How it was run: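 Sarcoma cell lines were seeded in 384-well plates at densities set to reach 80–90% confluence. After 24 h, 2.5 µl of serially diluted compound was added (source plates 10 mM to 0.0002 mM), and plates were held 72 h at 37 °C, 5% CO2, with 0.1% DMSO vehicle and a 5 µM positive control. Relative viability came from ATPLite readings as percent growth, averaged over up to triplicate wells. Data were rescaled so full viability equals 1 and none equals 0.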

| Structure (SMILES) | relative viability (0.00017 µM) | relative viability (0.00051 µM) | relative viability (0.00152 µM) | relative viability (0.00457 µM) | relative viability (0.01372 µM) | relative viability (0.04115 µM) | relative viability (0.1235 µM) | relative viability (0.3704 µM) | relative viability (1.111 µM) | relative viability (3.333 µM) | relative viability (10 µM) |
| --- | --- | --- | --- | --- | --- | --- | --- | --- | --- | --- | --- |
| CO[C@H]1C[C@@H]2CC[C@@H](C)[C@@](O)(O2)C(=O)C(=O)N2CCCC[C@H]2C(=O)O[C@H]([C@H](C)C[C@@H]2CC[C@@H](OP(C)(C)=O)[C@H](OC)C2)CC(=O)[C@H](C)/C=C(\C)[C@@H](O)[C@@H](OC)C(=O)[C@H](C)C[C@H](C)/C=C/C=C/C=C/1C [Ridaforolimus] | 1.03 ± 0.059 | 1.04 ± 0.033 | 0.978 ± 0.051 | 0.806 ± 0.055 | 0.675 ± 0.037 | 0.643 ± 0.037 | 0.601 ± 0.014 | 0.555 ± 0.026 | 0.56 ± 0.0043 | 0.545 ± 0.029 | 0.52 ± 0.011 |
| CCc1cc2c(cc1N1CCC(N3CCOCC3)CC1)C(C)(C)c1[nH]c3cc(C#N)ccc3c1C2=O [Alectinib] | 1 ± 0.048 | 1.04 ± 0.023 | 1.07 ± 0.025 | 1.07 ± 0.025 | 1.02 ± 0.031 | 1.03 ± 0.02 | 1.06 ± 0.084 | 1.01 ± 0.068 | 1.08 ± 0.056 | 1.04 ± 0.035 | 0.915 ± 0.068 |
| C[C@@H](c1ccc2nccn2c1)n1nnc2ncc(-c3cnn(C)c3)nc21 [Volitinib] | 1.02 ± 0.025 | 1.01 ± 0.06 | 1.05 ± 0.031 | 1.07 ± 0.021 | 1.05 ± 0.047 | 1.04 ± 0.033 | 1.04 ± 0.051 | 1.03 ± 0.036 | 1.05 ± 0.1 | 1.05 ± 0.058 | 1.01 ± 0.083 |
| CC1(C)CNc2cc(NC(=O)c3cccnc3NCc3ccncc3)ccc21 [Motesanib] | 0.942 ± 0.053 | 0.899 ± 0.059 | 0.952 ± 0.013 | 0.891 ± 0.017 | 0.9075 ± 0.0058 | 0.938 ± 0.056 | 0.974 ± 0.051 | 0.913 ± 0.043 | 0.954 ± 0.044 | 0.924 ± 0.053 | 0.753 ± 0.038 |
| CN1CCN(c2ccc3nc(-c4c(N)c5c(F)cccc5[nH]c4=O)[nH]c3c2)CC1 [Dovitinib] | 1.02 ± 0.013 | 1.07 ± 0.037 | 1.044 ± 0.0086 | 1.03 ± 0.022 | 1.07 ± 0.015 | 0.963 ± 0.049 | 0.937 ± 0.039 | 0.676 ± 0.012 | 0.365 ± 0.0063 | 0.155 ± 0.017 | 0.0451 ± 0.0026 |
| CNC(=O)c1cc(Oc2ccc(NC(=O)Nc3ccc(Cl)c(C(F)(F)F)c3)c(F)c2)ccn1 [Regorafenib] | 1.11 ± 0.054 | 1.03 ± 0.027 | 1.08 ± 0.032 | 1.04 ± 0.017 | 1.02 ± 0.085 | 1.03 ± 0.014 | 1.09 ± 0.036 | 1.05 ± 0.047 | 0.952 ± 0.05 | 0.836 ± 0.017 | 0.523 ± 0.021 |
| Cc1nc(NC(=O)N2CCC[C@H]2C(N)=O)sc1-c1ccnc(C(C)(C)C(F)(F)F)c1 [Alpelisib] | 1.02 ± 0.032 | 1 ± 0.047 | 1.01 ± 0.039 | 1.01 ± 0.054 | 0.995 ± 0.057 | 0.931 ± 0.033 | 0.888 ± 0.052 | 0.675 ± 0.057 | 0.558 ± 0.0047 | 0.425 ± 0.024 | 0.289 ± 0.02 |
| CCN1CCN(Cc2ccc(Nc3ncc(F)c(-c4cc(F)c5nc(C)n(C(C)C)c5c4)n3)nc2)CC1 [Abemaciclib] | 1.03 ± 0.032 | 1.04 ± 0.027 | 0.995 ± 0.031 | 1 ± 0.052 | 0.922 ± 0.055 | 0.728 ± 0.018 | 0.481 ± 0.035 | 0.413 ± 0.012 | 0.38 ± 0.0066 | 0.346 ± 0.01 | 0.00807 ± 0.00042 |
| CC[C@H](Nc1ncnc2[nH]cnc12)c1nc2cccc(F)c2c(=O)n1-c1ccccc1 [Idelalisib] | 1.06 ± 0.041 | 1.06 ± 0.06 | 1.03 ± 0.024 | 1.08 ± 0.018 | 1.08 ± 0.015 | 1.08 ± 0.051 | 1.04 ± 0.042 | 1.02 ± 0.021 | 1.01 ± 0.056 | 0.905 ± 0.052 | 0.827 ± 0.01 |
| C=CC(=O)N1CCC[C@@H](n2nc(-c3ccc(Oc4ccccc4)cc3)c3c(N)ncnc32)C1 [Ibrutinib] | 1.008 ± 0.0073 | 1.02 ± 0.054 | 1.02 ± 0.026 | 1.02 ± 0.054 | 1 ± 0.085 | 1.04 ± 0.03 | 1 ± 0.011 | 1.06 ± 0.036 | 1.057 ± 0.0088 | 1.02 ± 0.021 | 0.743 ± 0.043 |
